From article PMC10376059, “New NADPH Oxidase 2 Inhibitors Display Potent Activity against Oxidative Stress by Targeting p22^phox-p47^phox Interactions” (Antioxidants, 2023)

Target: T1, NOX2 (Homo sapiens, UniProt P14598)
T1 construct: HL-60 cells expressed the components of NOX2, including gp91, p22^phox, p47^phox, and p67^phox; endogenous in cells; whole cells in A1, membrane preparations in A3 and A4
T1 sequence (P14598 1-390): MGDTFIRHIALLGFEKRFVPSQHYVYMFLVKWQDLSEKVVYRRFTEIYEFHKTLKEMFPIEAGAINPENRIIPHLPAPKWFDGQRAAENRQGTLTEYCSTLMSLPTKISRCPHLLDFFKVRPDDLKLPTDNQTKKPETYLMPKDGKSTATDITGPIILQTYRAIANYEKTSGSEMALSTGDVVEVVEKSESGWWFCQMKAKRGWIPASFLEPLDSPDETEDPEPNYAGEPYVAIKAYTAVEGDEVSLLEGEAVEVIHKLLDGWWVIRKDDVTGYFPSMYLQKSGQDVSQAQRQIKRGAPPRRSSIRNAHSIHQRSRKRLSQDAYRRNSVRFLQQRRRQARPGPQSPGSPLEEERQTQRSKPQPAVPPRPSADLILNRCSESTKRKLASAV
Assay: NADPH oxidase (NOX2) inhibition, DCF fluorescence in PMA-activated neutrophil-differentiated HL-60 cells
Format: cell-based
Conditions: for inhibition of NOX2-derived ROS production (in words): PMA-activated HL-60 cells, 0.05 µM to 50 µM; for IC50: neutrophil-differentiated HL-60 cells, PMA 0.8 µM, DCF fluorescence, 0.05 to 50 µM
Description: The differentiation of HL-60 cells to neutrophils was performed after reaching a concentration of between 2 × 10^6 and 5 × 10^6 cells/mL in the differentiation medium: RPMI 1640 medium; 10% FBS; 100 IU/mL of penicillin/streptomycin; and 1.3% DMSO for 7 days, replenishing the differentiation medium every 2 days.
The 2′,7′-dichlorofluorescein (DCF) fluorescence analysis was used to determine NADPH oxidase activity in neutrophil-differentiated HL-60 cells. The method, based on a fluorimetric assay, was adapted from Boly et al.. Briefly, 1 × 10^6 neutrophil-differentiated HL-60 cells/mL were incubated for 45 min. at 37 °C in darkness with DCF-DA (1 mg/mL). The cell suspension was then transferred to a 15 mL conical tube and centrifuged at 330× g × 10 min at 37 °C. After the supernatant was removed, the cells were re-suspended in Hanks balanced saline buffer (HBSS, Sigma-Aldrich, St. Louis, MO, USA) and transferred to dark 96-well plates with a flat glass bottom (Thermo Scientific Nunc 96 microwell® black, Optical Botton # 1.5 Cover Glass Base, Thermo Fisher Scientific). Then, 200 μL of cell suspension per well were incubated at 37 °C for 30 min with the indole heteroaryl-acrylonitriles at increasing concentrations (0.05 to 50 μM). […] Finally, PMA (0.8 μM) was added to each well for 10 min. to generate the activation of NOX2. The generation of the DCF fluorescence product was monitored in an automatic microplate reader (FLx800, BioTek Instruments, Winooski, VT, USA) at 1-min intervals at 37 °C for 1 h, using an excitation wavelength of 485 nm and an emission wavelength of 555 nm. The ability to inhibit ROS production by activated neutrophil-differentiated HL-60 cells was compared against the different controls. A control was performed with cells activated by PMA in the presence of DMSO and established as having 100% of the ROS-induced fluorescence. Inhibition control was performed in the presence of VAS2870 (20 µM) and activated by PMA. Another control (NA, not activated) was done with cells in the absence of PMA and the indole heteroaryl-acrylonitriles.
All the experiments were performed in triplicate, using three different cell preparations, and the data were reported as mean ± s.e.m. For the determination of the IC50 of the indole heteroaryl-acrylonitriles, concentration-response curves (0.05 to 50 μM) were constructed. IC50 values were given as the mean ± standard deviation for at least three independent assays. The data were analyzed using one- and two-way ANOVA. A value of p < 0.05 was considered statistically significant. Statistical analyses were performed using the program GraphPad Prism® version 6.00, San Diego, CA, USA.

N#C/C(=C\c1cc(-c2ccccc2)on1)C(=O)c1c[nH]c2ccccc12 [Compound C6]
inhibition of NOX2-derived ROS production (in words): exhibited concentration-dependent inhibition of NOX2 | IC50: 1.1 ± 0.2 µM

N#C/C(=C\c1ccncc1)C(=O)c1c[nH]c2ccccc12 [Compound C14]
inhibition of NOX2-derived ROS production (in words): exhibited concentration-dependent inhibition of NOX2 | IC50: 3.6 ± 0.2 µM
